Measured values: US11884933B2, “Supported in vitro developed tissue culture and culturing methods” (IMBA—INSTITUT FÜR MOLEKULARE BIOTECHNOLOGIE GMBH, priority 2016, dated 2024)
“Also recorded” adds a separate entry of the source.

What was measured:
H1 spheroids = experiment: Three day CHIR pulse in spheroids, germ layer staining; type: cell-based, human; settings: 3-day CHIR pulse alone, day 40 spheroids
Procedure: Organoids were fixed in 4% paraformaldehyde for 20 min at room temperature and washed with PBS three times for 10 min each at room temperature before allowing to sink in 30% sucrose at 4° C. […] Statistical analysis of quantifications performed from imaging data was performed using Student's t-test for significance.

[1] = tested on: microfilament patterned organoids; experiment: CHIR pulse after neuroepithelial budding in microfilament organoids; type: cell-based, human
From the text: At day 3, half media was changed with EB media without bFGF and Y-27632. On day 5, EBs were moved with an angled cut P200 tip to 24-well low-attachment plates (Sigma, cat. #CLS3473) with neural induction media (NI) as previously described in WO 2014/090993 A1 (incorporated herein by reference) (FIG. 1a, step 3). Media was changed every other day. On day 11, or when polarized neural ectoderm was visible on the surface, organoids were transferred to droplet of Matrigel as previously described in WO 2014/090993 A1 but kept in NI media (FIG. 1a, transition from step 3 to 4). At day 13 (2 days after Matrigel embedding), media was changed to an improved differentiation media-A (IDMA): 1:1 of DMEM/F12 and Neurobasal (Invitrogen, cat. #21103049), 0.5% N2 supplement (Invitrogen, cat. #17502048), 2% B27-vitamin A (Invitrogen, cat. #12587010), 0.25% insulin solution (Sigma, cat. #I9278-5ML), 50 μM 2-mercaptoethanol, 1% Glutamax, 0.5% MEM-NEAA, and 1% Penicillin-Streptomycin (Sigma, cat. *P0781). Additionally, CHIR 99021 (Tocris, cat. #4423) at 3 μM was added from day 13 to 16. Media was changed every other day and organoids were moved to a spinning bioreactor or orbital shaker as described previously in WO 2014/090993 A1, on day 18 (FIG. 1a, step 5). After moving to the shaker, media was changed every 3-4 days. Shaking speed was calculated based on the throw of the shaker. […]

H9 enCORs = experiment: Cortical plate / basement membrane formation in enCORs with dissolved ECM components or GM6001; type: cell-based, human
Procedure: At day 20, media was changed to an improved differentiation+A (IDM+A): 1:1 of DMEM/F12 and Neurobasal, 0.5% N2 supplement, 2% B27+vitamin A, 0.25% insulin solution, 50 μM 2-mercaptoethanol, 1% Glutamax, 0.5% MEM-NEAA, 1% Penicillin-Streptomycin, 0.4 mM Vitamin C, and 1.49 g HEPES per 500 ml to control pH levels. Alternatively, media can be pH controlled with further bicarbonate buffering with the addition of 1 mg/ml sodium bicarbonate. At day 40, media was changed to IDM+A with 1 ml dissolved Matrigel per 50 ml media by slowly thawing the Matrigel on ice and addition to cold media to dissolve (FIG. 1a, step 6).
For treatment with matrix metalloprotease inhibitor GM6001 (Selleck Chemicals S7157), a final concentration of 3 μM was added beginning on day 30.

Cc1c[nH]c(-c2cnc(NCCNc3ccc(C#N)cn3)nc2-c2ccc(Cl)cc2Cl)n1 [CHIR, CHIR99021]
germ layer induction and organoid morphology (H1 spheroids): did not influence germ layer induction or overall organoid morphology
neuroepithelial bud morphology ([1]; CHIR 3 μM, day 13 to 16, after Matrigel embedding): larger, more continuous buds of neuroepithelium; also recorded: dramatic lateral expansion of neuroepithelial tissues and the generation of larger lumens with surrounding continuous neuroepithelium
dorsal brain region identity staining (Emx1, Tbr1, Tbr2) ([1]; microfilament patterned organoids treated with CHIR): all large lobes of brain tissue within microfilament patterned organoids treated with CHIR to be dorsal cortex; also recorded: large Emx1+ regions; also recorded: virtually all large regions stained positive for dorsal cortical markers Tbr1 and Tbr2

CNC(=O)[C@H](Cc1c[nH]c2ccccc12)NC(=O)[C@@H](CC(=O)NO)CC(C)C [GM6001]
CP formation (H9 enCORs; GM6001 3 μM continuous from day 30, 60-day enCORs): no signs of CP formation; also recorded: did not result in CP formation by 60 days

CCO [ethanol]
ethanol concentration in the media (150 mM dose, within a day): approximately 60 mM
course of ethanol concentration in the media (all doses tested): progressive decrease in concentration over time
equivalent blood alcohol content (equivalent of approximately 60 mM): 0.27 % by volume

laminin
CP formation (H9 enCORs; dissolved laminin 35 μg/ml from day 40, 60-day enCORs): no evidence of CP formation; also recorded: did not recapitulate the extent of CP formation seen with Matrigel
